Results: US12533315B2, “Compositions comprising at least one ionic liquid, a polypeptide, and at least one non-ionic surfactant for protein delivery” (PRESIDENT AND FELLOWS OF HARVARD COLLEGE, priority 2019, dated 2026)
“Also recorded” adds a separate entry of the source. Blank lines part the entries; values can stand above or below the substance they belong to.

Tests used:
porcine skin [1] = tested on: porcine skin
Procedure: (§1) Preparation of FITC-labeled Fab. The Pierce™ FITC Antibody-Labeling Kit (ThermoFisher Scientific) was used to label Fab purchased from Chemical & Scientific Corporation with FITC. Briefly, 925 μL of sterilized water were added into 75 μL of 0.67 M borate buffer that had been attached to the kit, and the labeling buffer (50 mM sodium borate, pH 8.5) was prepared. Lyophilized Fab, 1 mg, was added into 0.5 mL of the labeling buffer and was then melted. The Fab solution, 0.5 mL, was added into the FITC reagent vial that had been attached to the kit and was then pipetted 10 times for the complete melting of the pigment. After the collection of the slightly centrifuged sample solution in the vial's bottom, the reaction was incubated at room temperature for 60 minutes and under light blocking. At 60 minutes later, the column containing the reaction solution was set to the recovery column that had been attached to the kit. Subsequently, 400 μL of the homogeneously suspended purification column suspension solution were added. After centrifugation (about 1,000 μg, 30 to 45 seconds), FITC-labeled Fab was recovered. The amount of antibody labeling was calculated by measuring absorbance at 280 nm and 495 nm according to the following formulae:
(§2) Preparation of the FITC-labeled Fab-CAGE sample solution. The FITC-Fab solution (50 mM sodium borate, pH 8.5) was mixed with 6 CAGE variants at a volume ratio of 50%/50% (v/v %). Regarding CAGE (1:2), the FITC-Fab solution was mixed at volume ratios of 50%/50% (v/v %), 40%/60% (v/v %), and 30%/70% (v/v %). The mixed solutions were allowed to stand at room temperature for 1 hour. Subsequently, 300 μL of the mixed solutions obtained were used for the porcine skin penetrability test.
(§3) Preparation of the FITC-labeled Fab-CAGE-polysorbate sample solutions. Polysorbates 40 and 60 were mixed with the FITC-labeled Fab solution (50 mM sodium borate, pH 8.5) to obtain the final concentration of 3%. Subsequently, the resulting solutions were mixed with CAGE (1:2) at the volume ratios of 30%/70% (v/v %) [=30% CAGE (1:2)] or 40%/60% (v/v %) [=40% CAGE (1:2)]. Because of its nature of being solid at room temperature, polysorbate 60 was dissolved by 30-minute warming at 37° C. prior to the addition. Furthermore, the solution was warmed for 10 minutes at 37° C. to completely dissolve polysorbate 60 and was then mixed with CAGE (1:2). The resulting mixed solutions were allowed to stand at room temperature for 1 hour. The final concentration of antibodies was adjusted to 10 μg/mL.
(§4) Preparation of the porcine skin. In the porcine skin penetrability test, the cryopreserved skin of a WSP was unfrozen at room temperature. A pair of scissors were used to remove hair on the skin surface, followed by washing of the skin surface with PBS. The WSP skin, with the epidermis side upward, was set to the receiver chamber of a longitudinal diffusion cell (diffusion area: 1.77 cm2). The upper portion of the skin was filled with PBS (0.01% sodium azide). A contact gauge of conductivity was used to confirm skin conductivity at 100 Hz. The WSP skin with a resistivity of ≥5.65 kΩ/cm2 only was used in the porcine skin penetrability test based on previous studies [53,54].
(§5) Skin penetrability test using the porcine skin. The porcine skin was punched in a circle with a 36-mm diameter puncher. Subsequently, the porcine skin, with the epidermis side upward, was set on the receiver chamber of a longitudinal diffusion cell (diffusion area: 1.77 cm2). PBS (0.01% sodium azide, pH 7.4) was added into the interior of the receiver chamber and to the upper portion of the skin via a donor chamber, and the skin was allowed to stand in the incubator at 37° C. for 30 minutes. Meanwhile, the solution of the receiver chamber was stirred gently.

[2] = tested on: Fab (antihistone H1 antibody fragment; antigen KLH-SSV peptide); settings: Fab 10 μg/mL in 10 mM phosphate buffer
Procedure: The Fab solution (10 mM phosphate buffer, pH 7.4) was mixed with CAGE (1:2) at the volume ratios of 50%/50% (v/v %), 40%/60% (v/v %), and 30%/70% (v/v %), and the mixed solutions were allowed to stand at room temperature for 1 hour. The Fab solution was prepared to obtain the final concentration of 10 μg/mL.
The solution was dialyzed with 10 mM phosphate buffer (pH 7.4) used as the dialysate at room temperature for 48 hours. The dialysate was replaced appropriately during the dialysis. At 48 hours later, the solution thus obtained was stored in a refrigerator at 4° C.
ELISA was conducted according to the method of Chiang et al. [51]. Briefly, 2 μg of KLH-SSV peptide (0.1 M sodium bicarbonate-sodium carbonate buffer, pH 9.6±0.2) were instilled into each well, and the solution was allowed to stand overnight at room temperature. After the removal of the KLH-SSV solution and the washing of each well with PBS (0.05% Tween 20®), 300 μL of SuperBlock Blocking Buffer™ in PBS were added into each well, and the solution was allowed to stand for 1 hour at room temperature. […] At 20 minutes later, SpectraMax i3™ (Molecular Devices) was used to measure absorbance at 405 nm. […]

[3] = tested on: Fab (antihistone H1 antibody fragment; antigen KLH-SSV peptide); assay: Deactivation-preventing effect of polysorbates on Fab in CAGE (1:2) (ELISA); type: biochemical; settings: for Fab deactivation-preventing effect, qualitative comparison of polysorbates: 30% and 40% CAGE (1:2), 3% to 10% polysorbate (FIGS. 7A, 7B)
Procedure: Preparation of the Fab-CAGE (1:2)-polysorbate mixed solutions. […] Unlike other polysorbates, polysorbate 60 only is solid at room temperature.
The dialysate was replaced appropriately during the dialysis.
Each experiment was conducted in triplicate.

porcine skin [4] = assay: Porcine skin penetrability test of FITC-labeled Fab, confocal fluorescence microscopy; settings: for impact on skin penetration of Fab: 3% polysorbate added to CAGE (1:2); for skin penetration of Fab: 3% polysorbate alone, without CAGE
Procedure: as §1, §2, §3, §4, §5

Substance: Choline And GEranate [CAGE (1:2)]
penetration of Fab into skin in vitro (porcine skin [1]): deep penetration into skin
skin penetration-enhancing effect of Fab (porcine skin [1]): most potent
Fab deactivation, dependence on CAGE (1:2) concentration [2]: deactivated in a concentration dependent manner
ELISA signal (absorbance of undialyzed aqueous Fab solution = 100%) ([2]; ≥5% CAGE (1:2), 1 hour room temperature, CAGE removed by dialysis): about 5%

Substance: polyoxyethylene (20) sorbitan monolaurate [polysorbate 20]
Fab deactivation-prevention effect (preventive effect) ([3]; 3% polysorbate, 40% CAGE (1:2), Fab 10 μg/mL): about 50%
Fab deactivation-prevention effect (preventive effect) ([3]; 5% polysorbate, 30% CAGE (1:2), Fab 10 μg/mL): ~100%
Fab deactivation-prevention effect (preventive effect) ([3]; 8% polysorbate, 30% CAGE (1:2), Fab 10 μg/mL): ~100%
Fab deactivation-prevention effect (preventive effect) ([3]; 10% polysorbate, 30% CAGE (1:2), compared with 5% and 8%): decreased slightly
Fab deactivation-prevention effect (preventive effect) ([3]; 10% polysorbate, 40% CAGE (1:2), compared to 3% polysorbate 20): comparable
Fab deactivation-prevention effect, dependence on polysorbate concentration ([3]; 40% CAGE (1:2), polysorbate above 3%): decreased with increasing polysorbate 20 concentrations
Fab deactivation ([3]; 50% CAGE (1:2), polysorbate concentrations other than 8%): mostly deactivated
Fab deactivation-prevention effect (preventive effect) ([3]; ≥3% (v/v) polysorbate, 30% CAGE (1:2), Fab 10 μg/mL): prevented

Substance: polyoxyethylene (20) sorbitan monooleate [polysorbate 80]
Fab deactivation-preventing effect, qualitative comparison of polysorbates [3]: needs to be at a higher concentration compared to polysorbate 40 and polysorbate 60

Substance: polyoxyethylene (20) sorbitan monopalmitate [polysorbate 40]
impact on skin penetration of Fab (porcine skin [4]): do not adversely impact skin penetration of Fab
skin penetration of Fab (porcine skin [4]): did not impact skin penetration of the Fab
Fab deactivation-preventing effect, qualitative comparison of polysorbates [3]: prevented Fab deactivation at a lower concentration than did polysorbate 20; also recorded: equivalent; also recorded: more effective; also recorded: most potent

skin penetration of Fab (porcine skin [4]): did not induce skin penetration of Fab
skin penetration of FITC-labeled Fab (porcine skin [4]; 30% CAGE + 3% polysorbate 60 versus 30% CAGE alone): Comparable skin penetration
Substance: polyoxyethylene (20) sorbitan monostearate [polysorbate 60]
impact on skin penetration of Fab (porcine skin [4]): do not adversely impact skin penetration of Fab
Fab deactivation-prevention effect (preventive effect) ([3]; 3% polysorbate, 30% CAGE (1:2), Fab 10 μg/mL): > 80%
Fab deactivation-preventing effect, qualitative comparison of polysorbates [3]: equivalent; also recorded: more effective; also recorded: most potent
